Calls of active or inactive are those of the source. The rule behind the calls is not given here.
Tests used:
[1] = Decrease in IFN-gamma-induced MHC2 expression in Sprague-Dawley rat primary microglial cells at 1.3 uM; type: cell-based; set-up: scale not given: the % may be the effect or the level left; details: Microglia
[2] = molecular target: Protein kinase C alpha type (Homo sapiens, UniProt P17252); assay: Inhibition of PKCalpha
[3] = molecular target: Protein kinase C beta type (Homo sapiens, UniProt P05771); assay: Inhibition of PKCbeta1
Chain of Protein kinase C beta type (P05771 whole entry): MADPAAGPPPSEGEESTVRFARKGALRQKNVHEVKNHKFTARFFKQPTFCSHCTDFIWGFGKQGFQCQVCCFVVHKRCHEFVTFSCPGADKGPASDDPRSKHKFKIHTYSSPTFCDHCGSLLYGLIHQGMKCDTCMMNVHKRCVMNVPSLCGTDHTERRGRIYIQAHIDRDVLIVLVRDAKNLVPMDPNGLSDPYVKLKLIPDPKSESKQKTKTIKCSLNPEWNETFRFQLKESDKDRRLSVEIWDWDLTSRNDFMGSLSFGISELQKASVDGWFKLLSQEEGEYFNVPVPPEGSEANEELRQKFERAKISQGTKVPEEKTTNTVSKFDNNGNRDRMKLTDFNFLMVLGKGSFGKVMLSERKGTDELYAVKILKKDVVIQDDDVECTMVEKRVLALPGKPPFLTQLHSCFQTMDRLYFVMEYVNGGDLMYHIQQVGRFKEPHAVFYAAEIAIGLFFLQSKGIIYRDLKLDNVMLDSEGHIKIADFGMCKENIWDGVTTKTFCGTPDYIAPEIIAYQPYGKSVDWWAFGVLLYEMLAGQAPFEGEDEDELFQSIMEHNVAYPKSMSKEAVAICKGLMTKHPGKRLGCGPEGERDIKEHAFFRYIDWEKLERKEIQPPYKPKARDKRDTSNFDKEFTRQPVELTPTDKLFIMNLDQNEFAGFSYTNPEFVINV

Microglia = assay: Inhibition of IFN-gamma-induced IFN-gamma regulatory factor levels in Sprague-Dawley rat primary microglial cells by Western blotting; type: functional, cell-based
Rattus norvegicus [4] = organism: Rattus norvegicus; assay: Suppression of IFN-gamma-induced PKCalpha/beta2 nuclear translocation in Sprague-Dawley rat primary microglial cells at 1.3 uM by Western blotting
[5] = molecular target: T1, Interferon regulatory factor 1 (Rattus norvegicus) (UniProt P23570); assay: Suppression of IFN-gamma-induced IFN-gamma regulatory factor 1 nuclear translocation in Sprague-Dawley rat primary microglial cells at 1.3 uM by Western blotting
T1 sequence (whole entry): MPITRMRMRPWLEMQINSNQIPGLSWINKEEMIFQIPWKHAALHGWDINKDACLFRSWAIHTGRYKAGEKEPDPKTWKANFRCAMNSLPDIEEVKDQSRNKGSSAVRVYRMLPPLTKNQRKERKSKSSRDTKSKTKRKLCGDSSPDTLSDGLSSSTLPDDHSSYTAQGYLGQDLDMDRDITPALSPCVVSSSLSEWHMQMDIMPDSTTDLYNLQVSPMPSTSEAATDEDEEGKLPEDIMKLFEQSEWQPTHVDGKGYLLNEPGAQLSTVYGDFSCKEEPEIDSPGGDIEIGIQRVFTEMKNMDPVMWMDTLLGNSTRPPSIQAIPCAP

Macrophage [6] = assay: Inhibition of MHC2 expression in Sprague-Dawley rat peritoneal macrophages at 1.3 uM after 24 hrs by immunostaining; type: functional, cell-based
[7] = Decrease in IFN-gamma-induced MHC2 protein levels in Sprague-Dawley rat primary microglial cells at 1.3 uM by Western blotting; type: functional, Microglia; set-up: scale not given: the % may be the effect or the level left
Rattus norvegicus [8] = assay: Decrease in number of MOG-induced inflammatory lesions in spinal cord of dark agouti rat experimental allergic encephalomyelitis model at 45 mg/kg, ip administered twice a day at the first day of clinical signs and once a day for 14 days by hematoxylin and eosin staining; type: functional, organism-based; set-up: dose 45 mg/kg
Rattus norvegicus [9] = assay: Decrease in size of MOG-induced inflammatory lesions in spinal cord of dark agouti rat experimental allergic encephalomyelitis model at 45 mg/kg, ip administered twice a day at the first day of clinical signs and once a day for 14 days by hematoxylin and eosin staining; type: functional, organism-based; set-up: dose 45 mg/kg
Rattus norvegicus [10] = assay: Decrease in accumulation of CD11b+ cells in spinal cord of dark agouti rat experimental allergic encephalomyelitis model at 45 mg/kg, ip administered twice a day at the first day of clinical signs and once a day for 14 days by immunostaining; type: functional; set-up: scale not given: the % may be the effect or the level left; details: route intraperitoneal
Rattus norvegicus [11] = assay: Decrease in accumulation of MHC 2+ cells in spinal cord of dark agouti rat experimental allergic encephalomyelitis model at 45 mg/kg, ip administered twice a day at the first day of clinical signs and once a day for 14 days by immunostaining; type: functional; set-up: scale not given: the % may be the effect or the level left; details: route intraperitoneal
[12] = Decrease in IFN-gamma-induced MHC2 expression in Sprague-Dawley rat primary microglial cells at 100 uM; type: functional, cell-based; set-up: scale not given: the % may be the effect or the level left; details: Microglia
[13] = Decrease in IFN-gamma-induced MHC2 protein levels in Sprague-Dawley rat primary microglial cells at 100 uM by Western blotting; type: functional, Microglia; set-up: scale not given: the % may be the effect or the level left
[14] = Decrease in IFN-gamma-induced MHC2 mRNA levels in Sprague-Dawley rat primary microglial cells at 100 uM after 24 hrs by RT-PCR; type: functional, Microglia; set-up: scale not given: the % may be the effect or the level left
[15] = Decrease in IFN-gamma-induced CIITA mRNA expression in Sprague-Dawley rat primary microglial cells at 100 uM after 24 hrs by RT-PCR; type: functional, cell-based; details: Microglia
Rattus norvegicus [16] = organism: Rattus norvegicus; assay: Reduction in IFN-gamma-induced PKCalpha/beta2 phosphorylation in Sprague-Dawley rat primary microglial cells at 100 uM by Western blotting
Macrophage [17] = assay: Inhibition of MHC2 expression in Sprague-Dawley rat peritoneal macrophages at 100 uM after 24 hrs by immunostaining; type: functional, cell-based
[18] = molecular target: Protein kinase C alpha type (Rattus norvegicus) (UniProt P05696); assay: Decrease in PKCalpha phosphorylation in Sprague-Dawley rat peritoneal macrophages at 100 uM after 24 hrs
Rattus norvegicus [19] = organism: Rattus norvegicus; assay: Suppression of IFN-gamma-induced PKCalpha/beta2 nuclear translocation in Sprague-Dawley rat primary microglial cells at 100 uM by Western blotting
[20] = molecular target: T1, Interferon regulatory factor 1 (Rattus norvegicus); assay: Suppression of IFN-gamma-induced IFN-gamma regulatory factor 1 nuclear translocation in Sprague-Dawley rat primary microglial cells at 100 uM by Western blotting

Compound `Cn1c2ccccc2c2c3c(c4c5ccccc5n(CCC#N)c4c21)CNC3=O` [GO-6976] has an Activity [1] of 55%, an IC50 [2] of 2.3 nM and an IC50 [3] of 6.2 nM. For the same compound, the Activity (Microglia) was “Active”, the Activity (Rattus norvegicus [4]) was “Active” and the Activity [5] was “Active”. The Activity (Macrophage [6]) was “Active” and the Activity [7] was 80%.
With `CN(C)c1ccc(O)c2c1C[C@H]1C[C@H]3[C@H](N(C)C)C(O)=C(C(N)=O)C(=O)[C@@]3(O)C(O)=C1C2=O` [MINOCYCLINE] the Activity (Rattus norvegicus [8]) was “Active”, the Activity (Rattus norvegicus [9]) was “Active” and the Activity (Rattus norvegicus [10]) was 24%. It also gave an Activity (Rattus norvegicus [11]) of 42%, an Activity [12] of 55% and an Activity [13] of 47%. The Activity [14] was 45%, the Activity [15] was “Active” and the Activity (Rattus norvegicus [16]) was “Active”. The Activity (Macrophage [17]) was “Active”, the Activity [18] was “Active” and the Activity (Rattus norvegicus [19]) was “Active”. For the same compound, the Activity [20] was “Active”.
